pIC50: −log10 of the molar value. Where a SMILES comes first, the peptide text is derived from it. [ ]: non-standard residue; d: D form. The star is where a group is joined. Biotinyl(3aR,4R,6aS) = O=C1N[C@@H]2[C@@H](CS[C@@H]2CCCCC(=O)*)N1; Phe(4-guanidino) = N=C(N)Nc1ccc(C[C@H](N)C(=O)O)cc1; Bpa = N[C@@H](Cc1ccc(C(=O)c2ccccc2)cc1)C(=O)O; X3 = O=C1N[C@@H]2CSC(CCCCC(=O)*)[C@@H]2N1; Phe(4-F) = N[C@@H](Cc1ccc(F)cc1)C(=O)O; X4 = O=C(c1ccccc1)c1ccc(CCC(=O)*)cc1; Orn = NCCC[C@H](N)C(=O)O; X1 = O=C(C=Cc1ccccc1)*; Propionyl = CCC(=O)*
Assay: Human Thrombin receptor 1 (PAR-1) antagonistic ability to inhibit SFLLRN-NH2 (2.7 uM)-induced platelet aggregation

pIC50 | SMILES
5.47 | N=C(N)NCCC[C@H](NC(=O)[C@H](Cc1ccc(C(=O)c2ccccc2)cc1)NC(=O)[C@H](Cc1ccc(N=C(N)N)cc1)NC(=O)[C@H](Cc1ccc(F)cc1)NC(=O)C=Cc1ccccc1)C(=O)N[C@@H](CCCNC(=O)CCCC[C@H]1SC[C@H]2NC(=O)N[C@H]21)C(=O)O [(2S)-5-{5-[(3aR,4R,6aS)-2-oxo-hexahydro-1H-thieno[3,4-d]imidazolidin-4-yl]pentanamido}-2-[(2S)-2-[(2S)-3-(4-benzoylphenyl)-2-[(2S)-3-(4-carbamimidamidophenyl)-2-[(2S)-3-(4-fluorophenyl)-2-[(2E)-3-phenylprop-2-enamido]propanamido]propanamido]propanamido]-5-carbamimidamidopentanamido]pentanoic acid] (X1-[Phe(4-F)][Phe(4-guanidino)][Bpa]R[Orn](Biotinyl(3aR,4R,6aS))-OH)
5.01 | CC(C)C[C@H](NC(=O)[C@H](Cc1ccc(N=C(N)N)cc1)NC(=O)[C@H](Cc1ccc(F)cc1)NC(=O)C=Cc1ccccc1)C(=O)N[C@@H](Cc1ccc(C(=O)c2ccccc2)cc1)C(=O)N[C@@H](CCCNC(=O)CCCCC1SC[C@H]2NC(=O)N[C@@H]12)C(=O)O (stereo partly drawn) [(2S)-5-{5-[(3aR,6aS)-2-oxo-hexahydro-1H-thieno[3,4-d]imidazolidin-4-yl]pentanamido}-2-[(2S)-3-(4-benzoylphenyl)-2-[(2S)-2-[(2S)-3-(4-carbamimidamidophenyl)-2-[(2S)-3-(4-fluorophenyl)-2-[(2E)-3-phenylprop-2-enamido]propanamido]propanamido]-4-methylpentanamido]propanamido]pentanoic acid] (X1-[Phe(4-F)][Phe(4-guanidino)]L[Bpa][Orn](X3)-OH)
5.51 | CCC(=O)NCCC[C@H](NC(=O)[C@H](CCCNC(=N)N)NC(=O)[C@H](Cc1ccc(C(=O)c2ccccc2)cc1)NC(=O)[C@H](Cc1ccc(N=C(N)N)cc1)NC(=O)[C@H](Cc1ccc(F)cc1)NC(=O)C=Cc1ccccc1)C(=O)O [(S)-2-((S)-2-{(S)-3-(4-Benzoyl-phenyl)-2-[(S)-2-{(S)-3-(4-fluoro-phenyl)-2-[(E)-(3-phenyl-acryloyl)amino]-propionylamino}-3-(4-guanidino-phenyl)-propionylamino]-propionylamino}-5-guanidino-pentanoylamino)-5-propionylamino-pentanoic acid] (X1-[Phe(4-F)][Phe(4-guanidino)][Bpa]R[Orn](Propionyl)-OH)
5.05 | CCC(=O)NCCC[C@H](NC(=O)[C@H](Cc1ccc(C(=O)c2ccccc2)cc1)NC(=O)[C@H](CC(C)C)NC(=O)[C@H](Cc1ccc(N=C(N)N)cc1)NC(=O)[C@H](Cc1ccc(F)cc1)NC(=O)C=Cc1ccccc1)C(=O)O [(S)-2-((S)-3-(4-Benzoyl-phenyl)-2-{(S)-2-[(S)-2-{(S)-3-(4-fluoro-phenyl)-2-[(E)-(3-phenyl-acryloyl)amino]-propionylamino}-3-(4-guanidino-phenyl)-propionylamino]-4-methyl-pentanoylamino}-propionylamino)-5-propionylamino-pentanoic acid] (X1-[Phe(4-F)][Phe(4-guanidino)]L[Bpa][Orn](Propionyl)-OH)
5.51 | CC(C)C[C@H](NC(=O)[C@H](Cc1ccc(N=C(N)N)cc1)NC(=O)[C@H](Cc1ccc(F)cc1)NC(=O)CCc1ccc(C(=O)c2ccccc2)cc1)C(=O)N[C@@H](CCCNC(=N)N)C(=O)O [(S)-2-{(S)-2-[(S)-2-[(S)-2-[3-(4-Benzoyl-phenyl)-propionylamino]-3-(4-fluoro-phenyl)-propionylamino]-3-(4-guanidino-phenyl)-propionylamino]-4-methyl-pentanoylamino}-5-guanidino-pentanoic acid] (X4-[Phe(4-F)][Phe(4-guanidino)]LR-OH)
6.52 | CC(C)C[C@H](NC(=O)[C@H](Cc1ccc(N=C(N)N)cc1)NC(=O)[C@H](Cc1ccc(F)cc1)NC(=O)C=Cc1ccccc1)C(=O)N[C@@H](CCCNC(=N)N)C(=O)O [(S)-2-{(S)-2-[(S)-2-{(S)-3-(4-Fluoro-phenyl)-2-[(E)-(3-phenyl-acryloyl)amino]-propionylamino}-3-(4-guanidino-phenyl)-propionylamino]-4-methyl-pentanoylamino}-5-guanidino-pentanoic acid] (X1-[Phe(4-F)][Phe(4-guanidino)]LR-OH)
5.22 | N=C(N)NCCC[C@H](NC(=O)[C@H](Cc1ccc(C(=O)c2ccccc2)cc1)NC(=O)[C@H](Cc1ccc(N=C(N)N)cc1)NC(=O)[C@H](Cc1ccc(F)cc1)NC(=O)C=Cc1ccccc1)C(=O)O [(S)-2-{(S)-3-(4-Benzoyl-phenyl)-2-[(S)-2-{(S)-3-(4-fluoro-phenyl)-2-[(E)-(3-phenyl-acryloyl)amino]-propionylamino}-3-(4-guanidino-phenyl)-propionylamino]-propionylamino}-5-guanidino-pentanoic acid] (X1-[Phe(4-F)][Phe(4-guanidino)][Bpa]R-OH)
4.89 | CC(C)C[C@H](NC(=O)[C@H](Cc1ccc(N=C(N)N)cc1)NC(=O)[C@H](Cc1ccc(F)cc1)NC(=O)C=Cc1ccccc1)C(=O)N[C@@H](Cc1ccc(C(=O)c2ccccc2)cc1)C(=O)O [(S)-3-(4-Benzoyl-phenyl)-2-{(S)-2-[(S)-2-{(S)-3-(4-fluoro-phenyl)-2-[(E)-(3-phenyl-acryloyl)amino]-propionylamino}-3-(4-guanidino-phenyl)-propionylamino]-4-methyl-pentanoylamino}-propionic acid] (X1-[Phe(4-F)][Phe(4-guanidino)]L[Bpa]-OH)
